Results published in PMC8722715 (Frontiers in Cell and Developmental Biology, 2021).

Tests used:
hNaV1.7 channel = biological target: T1, hNaV1.7 channel (Homo sapiens, UniProt Q15858); test: Automated patch-clamp block of hNaV1.7 peak Na+ current in CHO cells; assay type: cell-based; settings: for IC50: CHO cells stably expressing hNaV1.7, SyncroPatch 384 PE whole-cell, holding -100 mV, -10 mV test pulse 50 ms every 5 s, room temperature 18-22°C, 0.3% BSA, steady state or end of 15-min application, mean, S.E.M. and n cells; for hNaV1.7 IC50 versus WT: ratio of analogue mean IC50 to HwTx-IV WT mean IC50 on hNaV1.7
T1 construct: expressed in transfected cells
Description: (§1) CHO cells stably expressing the hNaV1.7 channel subtype were cultured in Dulbecco’s Modified Eagle’s Medium F-12 (DMEM/F12) supplemented with 10% fetal bovine serum, 2 mM glutamine, 200 μg/ml hygromycine B, 10 U/ml penicillin and 10 μg/ml streptomycin (Gibco, Grand Island, NY). HEK-293 cells stably expressing the hNaV1.6 channel subtype were cultured in Dulbecco’s Modified Eagle’s Medium (DMEM) supplemented with 10% fetal calf serum, 1 mM pyruvic acid, 4.5 g/L glucose, 2 mM glutamine, 800 μg/ml G418, 10 U/ml penicillin and 10 μg/ml streptomycin (Gibco, Grand Island, NY). All cell lines were incubated at 37°C in a 5% CO2 atmosphere. For electrophysiological recordings, cells were detached with trypsin, and floating single cells were diluted (∼300,000 cells/ml) in an extracellular solution containing (in mM): 140 NaCl, 4 KCl, 2 CaCl2, 1 MgCl2, 5 glucose and 10 HEPES (pH 7.4, osmolarity 298 mOsm), that was used throughout the experiments.
HwTx-IV analogues were investigated on CHO cells expressing hNav1.7 channel and HEK-293 cells expressing hNaV1.6 channel using the automated patch-clamp system from Nanion (SyncroPatch 384 PE; München, Germany). Chips with single-hole and high-resistance (∼6–7 MΩ) were used for both cell lines. Voltage pulses and whole-cell recordings were achieved using the PatchControl384 v1.5.2 software (Nanion) and the Biomek v1.0 interface (Beckman Coulter). Prior to recordings, dissociated cells were shaken at 200 RPM in a cell hotel reservoir at 10°C. After cell catching, sealing, whole-cell formation, liquid application, recording, and data acquisition were all performed sequentially and automatically. The intracellular solution contained (in mM): 110 CsF, 10 CsCl, 10 NaCl, 1 MgCl2, 1 CaCl2, 10 EGTA and 10 HEPES (pH 7.2, osmolarity 280 mOsm), and the extracellular solution was as described above. Whole-cell experiments were done at −100 mV holding potential and at room temperature (18–22°C), while currents triggered at either −10 or 0 mV test potential were sampled at 20 kHz. Stimulation frequency was set at 0.2 Hz. Each HwTx-IV analogue was prepared at various concentrations in the extracellular solution, itself supplemented with 0.3% of bovine serum albumin (BSA), also added in the control solution. […] Compound solutions were diluted 3 times in the patch-clamp recording well by adding 30–60 μl external solution, to reach the final reported concentration and the test volume of 90 μl. For establishing dose-response curves, the compounds were tested at a test potential of either −10 or 0 mV for 50 ms with a pulse every 5 s. Percentages of current inhibition were measured at steady-state of blockage or at the end of a 15-min application time.

hNaV1.6 channel = biological target: T2, hNaV1.6 channel (Homo sapiens, UniProt Q9UQD0); test: Automated patch-clamp block of hNaV1.6 peak Na+ current in HEK-293 cells; assay type: cell-based; settings: for IC50: HEK-293 cells stably expressing hNaV1.6, SyncroPatch 384 PE whole-cell, holding -100 mV, 0 mV test pulse 50 ms every 5 s, room temperature 18-22°C, 0.3% BSA, steady state or end of 15-min application, mean, S.E.M. and n cells; for hNaV1.6 IC50 versus WT: ratio of analogue mean IC50 to HwTx-IV WT mean IC50 on hNaV1.6
T2 construct: expressed in transfected cells
Description: as §1
HwTx-IV analogues were investigated on CHO cells expressing hNav1.7 channel and HEK-293 cells expressing hNaV1.6 channel using the automated patch-clamp system from Nanion (SyncroPatch 384 PE; München, Germany). Chips with single-hole and high-resistance (∼6–7 MΩ) were used for both cell lines. Voltage pulses and whole-cell recordings were achieved using the PatchControl384 v1.5.2 software (Nanion) and the Biomek v1.0 interface (Beckman Coulter). Prior to recordings, dissociated cells were shaken at 200 RPM in a cell hotel reservoir at 10°C. After cell catching, sealing, whole-cell formation, liquid application, recording, and data acquisition were all performed sequentially and automatically. The intracellular solution contained (in mM): 110 CsF, 10 CsCl, 10 NaCl, 1 MgCl2, 1 CaCl2, 10 EGTA and 10 HEPES (pH 7.2, osmolarity 280 mOsm), and the extracellular solution was as described above. Whole-cell experiments were done at −100 mV holding potential and at room temperature (18–22°C), while currents triggered at either −10 or 0 mV test potential were sampled at 20 kHz. Stimulation frequency was set at 0.2 Hz. Each HwTx-IV analogue was prepared at various concentrations in the extracellular solution, itself supplemented with 0.3% of bovine serum albumin (BSA), also added in the control solution. The peptides were distributed in 384-well microplates according to the number of compounds to be tested (generally four), the concentration range defined from the IC50 of wild-type HwTx-IV, and the number of cells desired for each experimental condition. Compound solutions were diluted 3 times in the patch-clamp recording well by adding 30–60 μl external solution, to reach the final reported concentration and the test volume of 90 μl. For establishing dose-response curves, the compounds were tested at a test potential of either −10 or 0 mV for 50 ms with a pulse every 5 s. Percentages of current inhibition were measured at steady-state of blockage or at the end of a 15-min application time.

T1 sequence (Q15858 whole entry): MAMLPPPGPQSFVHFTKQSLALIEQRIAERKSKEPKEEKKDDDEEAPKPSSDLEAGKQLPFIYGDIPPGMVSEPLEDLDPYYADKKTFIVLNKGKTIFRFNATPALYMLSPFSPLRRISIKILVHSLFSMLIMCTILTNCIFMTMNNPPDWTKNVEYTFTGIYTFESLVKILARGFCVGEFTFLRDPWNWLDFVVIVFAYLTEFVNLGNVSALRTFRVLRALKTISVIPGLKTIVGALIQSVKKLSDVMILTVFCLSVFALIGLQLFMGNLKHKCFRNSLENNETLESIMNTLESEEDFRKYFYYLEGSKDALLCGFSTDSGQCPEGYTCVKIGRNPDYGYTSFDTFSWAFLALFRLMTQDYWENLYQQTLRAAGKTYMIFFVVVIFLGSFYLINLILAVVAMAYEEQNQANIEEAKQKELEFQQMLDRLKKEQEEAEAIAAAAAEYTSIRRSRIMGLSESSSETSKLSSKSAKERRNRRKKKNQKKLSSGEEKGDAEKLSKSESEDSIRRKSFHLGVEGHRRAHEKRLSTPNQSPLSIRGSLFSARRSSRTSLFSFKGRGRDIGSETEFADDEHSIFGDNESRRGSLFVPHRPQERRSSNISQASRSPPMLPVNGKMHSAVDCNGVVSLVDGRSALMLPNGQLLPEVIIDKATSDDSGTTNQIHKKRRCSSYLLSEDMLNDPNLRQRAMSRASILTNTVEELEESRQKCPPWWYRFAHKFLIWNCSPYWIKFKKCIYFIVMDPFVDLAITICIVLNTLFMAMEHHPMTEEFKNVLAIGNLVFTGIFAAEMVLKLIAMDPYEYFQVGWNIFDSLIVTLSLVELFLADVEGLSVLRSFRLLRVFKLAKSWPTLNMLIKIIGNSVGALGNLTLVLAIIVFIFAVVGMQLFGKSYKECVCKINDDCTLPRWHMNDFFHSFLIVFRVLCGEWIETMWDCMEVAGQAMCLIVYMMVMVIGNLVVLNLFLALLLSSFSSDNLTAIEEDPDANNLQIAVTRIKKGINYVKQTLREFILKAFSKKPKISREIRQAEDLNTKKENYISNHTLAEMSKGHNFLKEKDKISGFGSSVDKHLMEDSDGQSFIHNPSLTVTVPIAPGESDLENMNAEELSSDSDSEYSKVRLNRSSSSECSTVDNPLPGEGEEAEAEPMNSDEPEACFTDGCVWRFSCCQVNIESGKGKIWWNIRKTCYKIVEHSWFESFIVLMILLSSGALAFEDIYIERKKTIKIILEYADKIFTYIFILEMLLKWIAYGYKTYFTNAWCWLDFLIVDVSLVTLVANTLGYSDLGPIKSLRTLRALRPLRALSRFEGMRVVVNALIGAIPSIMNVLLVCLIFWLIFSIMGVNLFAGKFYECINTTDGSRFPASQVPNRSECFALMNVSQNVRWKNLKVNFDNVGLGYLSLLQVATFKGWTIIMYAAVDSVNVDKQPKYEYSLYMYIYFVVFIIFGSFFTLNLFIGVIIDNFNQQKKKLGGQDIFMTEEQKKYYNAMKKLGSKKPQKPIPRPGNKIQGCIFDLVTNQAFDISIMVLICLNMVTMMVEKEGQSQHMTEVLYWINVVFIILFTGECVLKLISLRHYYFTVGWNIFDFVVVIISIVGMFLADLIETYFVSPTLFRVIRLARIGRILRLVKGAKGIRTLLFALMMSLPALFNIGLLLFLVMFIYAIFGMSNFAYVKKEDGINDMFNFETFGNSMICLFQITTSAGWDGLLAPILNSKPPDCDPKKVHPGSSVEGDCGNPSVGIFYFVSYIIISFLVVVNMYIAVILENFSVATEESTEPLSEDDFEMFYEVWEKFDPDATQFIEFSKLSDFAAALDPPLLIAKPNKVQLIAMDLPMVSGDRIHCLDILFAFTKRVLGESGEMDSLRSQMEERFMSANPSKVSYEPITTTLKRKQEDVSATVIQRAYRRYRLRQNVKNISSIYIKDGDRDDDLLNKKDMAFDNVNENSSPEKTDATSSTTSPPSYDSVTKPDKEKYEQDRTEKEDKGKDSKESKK
T2 sequence (Q9UQD0 whole entry): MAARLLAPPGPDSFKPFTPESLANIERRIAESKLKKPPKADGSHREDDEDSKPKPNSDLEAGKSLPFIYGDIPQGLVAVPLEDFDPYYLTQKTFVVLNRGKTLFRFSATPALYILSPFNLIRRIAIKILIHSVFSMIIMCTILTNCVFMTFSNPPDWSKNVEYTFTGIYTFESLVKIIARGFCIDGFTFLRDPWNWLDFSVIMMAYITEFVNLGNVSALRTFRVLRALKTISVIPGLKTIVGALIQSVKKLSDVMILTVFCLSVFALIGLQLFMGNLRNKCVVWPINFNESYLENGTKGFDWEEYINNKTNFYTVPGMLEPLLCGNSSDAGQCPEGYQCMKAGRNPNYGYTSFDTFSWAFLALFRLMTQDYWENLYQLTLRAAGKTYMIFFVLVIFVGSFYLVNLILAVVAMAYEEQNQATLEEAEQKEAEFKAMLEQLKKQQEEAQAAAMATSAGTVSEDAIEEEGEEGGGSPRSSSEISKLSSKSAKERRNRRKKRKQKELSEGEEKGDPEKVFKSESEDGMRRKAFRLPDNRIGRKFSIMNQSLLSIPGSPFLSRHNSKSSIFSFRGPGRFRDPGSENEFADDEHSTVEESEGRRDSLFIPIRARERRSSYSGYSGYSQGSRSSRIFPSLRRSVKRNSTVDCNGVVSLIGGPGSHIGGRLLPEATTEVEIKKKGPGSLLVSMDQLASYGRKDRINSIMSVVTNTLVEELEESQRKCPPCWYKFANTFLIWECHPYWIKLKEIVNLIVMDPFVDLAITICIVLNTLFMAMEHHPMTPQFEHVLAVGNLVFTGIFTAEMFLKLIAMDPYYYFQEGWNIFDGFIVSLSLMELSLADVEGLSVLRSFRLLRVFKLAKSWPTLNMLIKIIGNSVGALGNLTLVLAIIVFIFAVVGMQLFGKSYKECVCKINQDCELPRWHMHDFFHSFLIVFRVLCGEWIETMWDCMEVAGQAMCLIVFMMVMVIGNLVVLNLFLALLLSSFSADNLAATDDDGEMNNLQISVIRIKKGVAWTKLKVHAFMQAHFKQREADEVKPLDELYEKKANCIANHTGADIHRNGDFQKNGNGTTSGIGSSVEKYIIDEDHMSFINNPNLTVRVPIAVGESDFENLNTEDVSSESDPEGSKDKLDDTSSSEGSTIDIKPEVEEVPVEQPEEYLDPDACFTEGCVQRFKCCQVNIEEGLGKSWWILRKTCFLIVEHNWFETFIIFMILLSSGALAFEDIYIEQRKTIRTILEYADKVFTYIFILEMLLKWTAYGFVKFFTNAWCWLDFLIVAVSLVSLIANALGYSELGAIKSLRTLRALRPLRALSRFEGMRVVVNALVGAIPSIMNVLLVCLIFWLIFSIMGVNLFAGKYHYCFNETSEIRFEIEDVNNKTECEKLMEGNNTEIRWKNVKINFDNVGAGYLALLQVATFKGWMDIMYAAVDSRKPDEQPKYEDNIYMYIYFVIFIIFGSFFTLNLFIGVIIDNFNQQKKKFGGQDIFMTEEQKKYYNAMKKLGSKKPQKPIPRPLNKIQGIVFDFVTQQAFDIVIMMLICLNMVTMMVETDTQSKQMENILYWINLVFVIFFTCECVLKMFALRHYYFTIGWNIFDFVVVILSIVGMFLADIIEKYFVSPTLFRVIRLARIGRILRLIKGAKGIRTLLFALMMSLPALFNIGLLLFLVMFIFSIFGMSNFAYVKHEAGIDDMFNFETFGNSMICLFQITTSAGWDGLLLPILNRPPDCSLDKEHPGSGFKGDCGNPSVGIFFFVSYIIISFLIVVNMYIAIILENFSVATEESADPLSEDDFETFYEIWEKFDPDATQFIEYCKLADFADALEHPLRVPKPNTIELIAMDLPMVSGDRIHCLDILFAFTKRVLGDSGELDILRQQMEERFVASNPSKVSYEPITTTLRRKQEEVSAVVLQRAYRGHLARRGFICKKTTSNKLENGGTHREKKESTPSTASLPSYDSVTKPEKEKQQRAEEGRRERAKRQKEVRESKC

| Structure (SMILES) | IC50 (hNaV1.7 channel) | hNaV1.7 IC50 versus WT (hNaV1.7 channel) | IC50 (hNaV1.6 channel) | hNaV1.6 IC50 versus WT (hNaV1.6 channel) | hNaV1.7/hNaV1.6 selectivity ratio (hNaV1.7 channel; inverse ratio of the mean IC50 values on hNaV1.7 (CHO) and hNaV1.6 (HEK-293) of Table 1) |
| --- | --- | --- | --- | --- | --- |
| CC[C@H](C)[C@H](NC(=O)[C@H](CCC(N)=O)NC(=O)[C@H](Cc1ccc(O)cc1)NC(=O)[C@H](CCCCN)NC(=O)[C@@H]1CSSC[C@@H]2NC(=O)[C@H](CCC(N)=O)NC(=O)[C@H](CC(=O)O)NC(=O)[C@H](CC(N)=O)NC(=O)[C@H](CO)NC(=O)[C@@H]3CCCN3C(=O)[C@H](CC(N)=O)NC(=O)[C@@H]3CSSC[C@H](NC(=O)[C@H](C(C)C)NC(=O)[C@H](CC(C)C)NC(=O)[C@H](CCCCN)NC(=O)[C@H](CO)NC(=O)[C@H](CO)NC(=O)[C@H](CCCCN)NC(=O)[C@H](CSSC[C@H](NC(=O)[C@@H](N)CCC(=O)O)C(=O)N[C@@H](CC(C)C)C(=O)N[C@@H](CCC(=O)O)C(=O)N[C@@H]([C@@H](C)CC)C(=O)N[C@@H](Cc4ccccc4)C(=O)N[C@@H](CCCCN)C(=O)N[C@@H](C)C(=O)N3)NC2=O)C(=O)N[C@@H](CO)C(=O)N[C@@H](CCCNC(=N)N)C(=O)N[C@@H](CCCCN)C(=O)N[C@@H]([C@@H](C)O)C(=O)N[C@@H](CCCNC(=N)N)C(=O)N[C@@H](Cc2c[nH]c3ccccc23)C(=O)N1)C(=O)O [HwTx-IV CterCOOH] | 176 nM | 17.81 | 1230 nM | 5.43 |  |
| CC[C@H](C)[C@H](NC(=O)[C@H](CCC(N)=O)NC(=O)[C@H](Cc1ccc(O)cc1)NC(=O)[C@H](CCCCN)NC(=O)[C@@H]1CSSC[C@@H]2NC(=O)[C@H](CCC(N)=O)NC(=O)[C@H](CC(=O)O)NC(=O)[C@H](CC(N)=O)NC(=O)[C@H](CO)NC(=O)[C@@H]3CCCN3C(=O)[C@H](CC(N)=O)NC(=O)[C@@H]3CSSC[C@H](NC(=O)[C@H](C(C)C)NC(=O)[C@H](CC(C)C)NC(=O)[C@H](CCCCN)NC(=O)[C@H](CO)NC(=O)[C@H](CO)NC(=O)[C@H](C)NC(=O)[C@H](CSSC[C@H](NC(=O)CN)C(=O)N[C@@H](CC(C)C)C(=O)NCC(=O)N[C@@H]([C@@H](C)CC)C(=O)N[C@@H](Cc4ccccc4)C(=O)N[C@@H](CCCCN)C(=O)N[C@@H](C)C(=O)N3)NC2=O)C(=O)N[C@@H](CO)C(=O)N[C@@H](CCCNC(=N)N)C(=O)N[C@@H](CCCCN)C(=O)N[C@@H]([C@@H](C)O)C(=O)N[C@@H](CCCNC(=N)N)C(=O)N[C@@H](Cc2c[nH]c3ccccc23)C(=O)N1)C(N)=O [HwTx-IV E^1G/E^4G/K^18A] | 0.8 nM | 0.08 | 4.9 nM | 0.02 |  |
| CC[C@H](C)[C@H](NC(=O)[C@H](CCC(N)=O)NC(=O)[C@H](Cc1ccc(O)cc1)NC(=O)[C@H](CCCCN)NC(=O)[C@@H]1CSSC[C@@H]2NC(=O)[C@H](CCC(N)=O)NC(=O)[C@H](CC(=O)O)NC(=O)[C@H](CC(N)=O)NC(=O)[C@H](CO)NC(=O)[C@@H]3CCCN3C(=O)[C@H](CC(N)=O)NC(=O)[C@@H]3CSSC[C@H](NC(=O)[C@H](C(C)C)NC(=O)[C@H](CC(C)C)NC(=O)[C@H](CCCCN)NC(=O)[C@H](CO)NC(=O)[C@H](CO)NC(=O)[C@H](CCCCN)NC(=O)[C@H](CSSC[C@H](NC(=O)CN)C(=O)N[C@@H](CC(C)C)C(=O)NCC(=O)N[C@@H]([C@@H](C)CC)C(=O)N[C@@H](Cc4ccccc4)C(=O)N[C@@H](CCCCN)C(=O)N[C@@H](C)C(=O)N3)NC2=O)C(=O)N[C@@H](CO)C(=O)N[C@@H](CCCNC(=N)N)C(=O)N[C@@H](CCCCN)C(=O)N[C@@H]([C@@H](C)O)C(=O)N[C@@H](CCCNC(=N)N)C(=O)N[C@@H](Cc2c[nH]c3ccccc23)C(=O)N1)C(N)=O [HwTx-IV E^1G/E^4G] | 2 nM | 0.20 | 3.7 nM | 0.02 | less than 2 |
| CC[C@H](C)[C@H](NC(=O)[C@H](CCC(N)=O)NC(=O)[C@H](Cc1ccc(O)cc1)NC(=O)[C@H](CCCCN)NC(=O)[C@@H]1CSSC[C@@H]2NC(=O)[C@H](CCC(N)=O)NC(=O)[C@H](CC(=O)O)NC(=O)[C@H](CC(N)=O)NC(=O)[C@H](CO)NC(=O)[C@@H]3CCCN3C(=O)[C@H](CC(N)=O)NC(=O)[C@@H]3CSSC[C@H](NC(=O)[C@H](C(C)C)NC(=O)[C@H](CC(C)C)NC(=O)[C@H](CCCCN)NC(=O)[C@H](CO)NC(=O)[C@H](CO)NC(=O)[C@H](CCCCN)NC(=O)[C@H](CSSC[C@H](NC(=O)[C@@H](N)CCC(=O)O)C(=O)N[C@@H](CC(C)C)C(=O)N[C@@H](CCC(=O)O)C(=O)N[C@@H]([C@@H](C)CC)C(=O)N[C@@H](Cc4ccccc4)C(=O)N[C@@H](CCCCN)C(=O)N[C@@H](C)C(=O)N3)NC2=O)C(=O)N[C@@H](CO)C(=O)N[C@@H](CCCNC(=N)N)C(=O)N[C@@H](CCCCN)C(=O)N[C@@H](Cc2c[nH]c3ccccc23)C(=O)N[C@@H](CCCNC(=N)N)C(=O)N[C@@H](Cc2c[nH]c3ccccc23)C(=O)N1)C(N)=O [HwTx-IV T^28W] | 114 nM | 11.53 |  |  |  |
